# Tested on: CHO (Chinese Hamster Ovaries) cells
# Test: Cells viability test (MTT), cells on top of hydrogel
# Type: cell-based
# Protocol: To verify the ability of the hybrid hydrogels described herein to be used in biological applications, their biocompatibility was determined using an in vitro cell culture experiment. Three types of cells were cultivated on top of the hybrid hydrogels: CHO (Chinese Hamster Ovaries), fibroblasts and chondrocytes.
# CHO, fibroblasts and chondrocytes cells were grown in Dulbecco's Modified
# Eagle Medium (DMEM) supplemented with 10% fetal calf serum, 100 U/ml penicillin, 100 U/ml streptomycin, and 2 mmol/liter L-glutamine (all from Beit Haemeck, Israel). Cells were maintained at 37° C. in a humidified atmosphere containing 5% CO2. Subconfluent cultures were harvested by trypsinization, counted, and diluted in specific cells' media to form a cell concentration of 10^6 cells/ml. The gels swelled overnight with 0.1 ml DMEM. The next day, DMEM was removed and […] of the CHO cells (10^5 cells) were placed on top of the hydrogel. After 1, 3 and 7 days of incubation at 37° C. the viability of the cells was determined using an MTT assay.
# The cell viability was analyzed 1, 3 and 7 days post seeding. Cells seeded as monolayers with PBS were used as control. Cell viability was analyzed using an MTT assay. […]
substance,measurement,value
hyaluronic acid [HA],"viability, in words",high viability

# Source: patent US10245351B2, “Malleable hydrogel hybrids made of self-assembled peptides and biocompatible polymers and uses thereof” (Technology Innovation Momentum Fund (Israel) Limited …, priority 2010, dated 2019)
